Laboratory results from US10150760B2, “Compounds for use in preparing heterocyclic triazole agonists of the APJ receptor” (AMGEN INC., priority 2016, dated 2018).

Molecular target: human APJ receptor (Homo sapiens (Human), UniProt P35414)
Experiment: [35S]GTPγS binding assay on membranes from CHO cells stably expressing human APJ receptor
Format: biochemical
Conditions: read-out: Activity hAPJ SPA EC50 IP
Procedure, shortened: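 Membranes from CHO cells stably expressing human APJ incubated with ligand, 0.2 nM [35S]GTPγS and WGA SPA beads in HEPES pH 7.5 with 5 mM MgCl2, 200 mM NaCl, 3 μM GDP, 90 min at RT. Nonspecific binding defined with 100 μM GTPγS; EC50 by non-linear regression.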

Sequence of human APJ receptor (P35414 whole entry): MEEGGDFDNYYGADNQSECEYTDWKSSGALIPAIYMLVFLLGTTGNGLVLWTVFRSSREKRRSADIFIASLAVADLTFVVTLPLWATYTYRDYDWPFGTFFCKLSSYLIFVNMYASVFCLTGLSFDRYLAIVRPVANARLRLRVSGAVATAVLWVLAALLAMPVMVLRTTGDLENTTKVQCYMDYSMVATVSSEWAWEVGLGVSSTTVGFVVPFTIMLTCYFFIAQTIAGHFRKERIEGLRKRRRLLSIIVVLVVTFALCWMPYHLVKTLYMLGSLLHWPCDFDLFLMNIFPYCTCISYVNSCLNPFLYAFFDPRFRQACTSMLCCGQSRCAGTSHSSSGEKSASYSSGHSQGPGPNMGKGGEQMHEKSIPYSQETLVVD

| Molecule | EC50 [µM] |
| --- | --- |
| COc1cnc([C@@H](C)[C@H](C)S(=O)(=O)Nc2nnc([C@@H]3COCCO3)n2-c2c(OC)ncnc2OC)nc1 (single isomer, unassigned) [Example 177.0, (2S,3R)-N-(4,-(4,6-dimethoxy-5-pyrimidinyl)-5-((2R)-1,4-dioxan-2-yl)-4H-1,2,4-triazol-3-yl)-3-(5-methoxy-2-pyrimidinyl)-2-butanesulfonamide or (2S,3R)-N-(4-(4,6-dimethoxy-5-pyrimidinyl)-5-((2S)-1,4-dioxan-2-yl)-4H-1,2,4-triazol-3-yl)-3-(5-methoxy-2-pyrimidinyl)-2-butanesulfonamide] | 0.095 |
| COc1cccc(OC)c1-n1c(NS(=O)(=O)CCc2ccc(Cl)cc2)nnc1[C@@H]1CCCO1 (racemic) [Example 143.0, (S)-2-(4-Chlorophenyl)-N-(4-(2,6-dimethoxyphenyl)-5-(tetrahydrofuran-2-yl)-4H-1,2,4-triazol-3-yl)ethanesulfonamide and (R)-2-(4-chlorophenyl)-N-(4-(2,6-dimethoxyphenyl)-5-(tetrahydrofuran-2-yl)-4H-1,2,4-triazol-3-yl)ethanesulfonamide] | 0.12 |
| CCc1ccccc1-n1c(NS(=O)(=O)[C@@H](C)[C@H](OC)c2ncc(Cl)cn2)nnc1[C@@H]1CCCO1 [Example 241.0, (1R,2S)-1-(5-chloro-2-pyrimidinyl)-N-(4-(2-ethylphenyl)-5-((2S)-tetrahydro-2-furanyl)-4H-1,2,4-triazol-3-y1)-1-methoxy-2-propanesulfonamide] | 0.0014 |
| (2S,3R)-3-(5-chloro-2-pyridinyl)-N-(4-(1,3-dimethoxy-2-propanyl)-5-((2R,5R)-5-methyltetrahydro-2-furanyl)-4H-1,2,4-triazol-3-yl)-2-butanesulfonamide or (2S,3R)-3-(5-chloro-2-pyridinyl)-N-(4-(1,3-dimethoxy-2-propanyl)-5-((2S,5S)-5-methyltetrahydro-2-furanyl)-4H-1,2,4-triazol-3-yl)-2-butanesulfonamide [Example 372.0] | 0.24 |
| COc1cccc(OC)c1-n1c(NS(=O)(=O)[C@@H](C)[C@H](C)c2ncc(Cl)cn2)nnc1[C@H]1CCCOC1 (single isomer, unassigned) [Example 62.0, (2S,3R)-3-(5-chloropyrimidin-2-yl)-N-(4-(2,6-dimethoxyphenyl)-5-((R)-tetrahydro-2H-pyran-3-yl)-4H-1,2,4-triazol-3-yl)butane-2-sulfonamide or (2S,3R)-3-(5-chloropyrimidin-2-yl)-N-(4-(2,6-dimethoxyphenyl)-5-((S)-tetrahydro-2H-pyran-3-yl)-4H-1,2,4-triazol-3-yl)butane-2-sulfonamide] | 0.026 |
| COc1cccc(OC)c1-n1c(NS(=O)(=O)[C@@H](C)[C@H](C)c2ccc(Cl)cn2)nnc1C1CCOC1 (single isomer, unassigned) [Example 409.0] | 0.011 |
| COc1cccc(OC)c1-n1c(NS(=O)(=O)[C@@H](C)[C@H](C)c2ncc(Cl)cn2)nnc1[C@H]1CCO[C@@H]1C (single isomer, unassigned) [Example 117.0, (2S,3R)-3-(5-chloropyrimidin-2-yl)-N-(4-(2,6-dimethoxyphenyl)-5-((2R,3R)-2-methyltetrahydrofuran-3-yl)-4H-1,2,4-triazol-3-yl)butane-2-sulfonamide or (2S,3R)-3-(5-chloropyrimidin-2-yl)-N-(4-(2,6-dimethoxyphenyl)-5-((2S,3S)-2-methyltetrahydrofuran-3-yl)-4H-1,2,4-triazol-3-yl)butane-2-sulfonamide] | 0.049 |
| COc1cccc(OC)c1-n1c(NS(=O)(=O)CCc2ccc(F)cc2C#N)nnc1[C@H]1CCC(=O)N1 [Example 43.0, 2-(2-Cyano-4-fluorophenyl)-N-(4-(2,6-dimethoxyphenyl)-5-((2R)-5-oxo-2-pyrrolidinyl)-4H-1,2,4-triazol-3-yl)ethanesulfonamide] | 1.19 |
| COc1cccc(OC)c1-n1c(NS(=O)(=O)[C@@H](C)[C@@H](OC(C)C)c2ncc(Cl)cn2)nnc1[C@H]1CCC(=O)N1 (single isomer, unassigned) [Example 400.0, (1S,2S)-1-(5-chloro-2-pyrimidinyl)-N-(4-(2,6-dimethoxyphenyl)-5-((2R)-5-oxo-2-pyrrolidinyl)-4H-1,2,4-triazol-3-yl)-1-(2-propanyloxy)-2-propanesulfonamide or (1S,2S)-1-(5-chloro-2-pyrimidinyl)-N-(4-(2,6-dimethoxyphenyl)-5-((2S)-5-oxo-2-pyrrolidinyl)-4H-1,2,4-triazol-3-yl)-1-(2-propanyloxy)-2-propanesulfonamide] | 0.33 |
| (1S,2S)-1-isopropoxy-1-(5-methylpyrazin-2-yl)-N-(5-((2S,5S)-5-methyltetrahydrofuran-2-yl)-4-(tetrahydro-2H-pyran-4-yl)-4H-1,2,4-triazol-3-yl)propane-2-sulfonamide or (1S,2S)-1-isopropoxy-1-(5-methylpyrazin-2-yl)-N-(5-((2R,5R)-5-methyltetrahydrofuran-2-yl)-4-(tetrahydro-2H-pyran-4-yl)-4H-1,2,4-triazol-3-yl)propane-2-sulfonamide [Example 263.0] | 0.46 |
| (2R)-N-(4-(2,6-dimethoxyphenyl)-5-(tetrahydro-2H-pyran-4-yl)-4H-1,2,4-triazol-3-yl)-1-(5-fluoro-2-pyrimidinyl)-2-propanesulfonamide and (2S)-N-(4-(2,6-dimethoxyphenyl)-5-(tetrahydro-2H-pyran-4-yl)-4H-1,2,4-triazol-3-yl)-1-(5-fluoro-2-pyrimidinyl)-2-propanesulfonamide [Example 15.0] | 0.47 |
| COc1cccc(OC)c1-n1c(NS(=O)(=O)[C@@H](C)[C@@H](OC(C)C)c2ncc(Cl)cn2)nnc1[C@H]1CCC(=O)N1 (single isomer, unassigned) [Example 399.0, (1S,2S)-1-(5-chloro-2-pyrimidinyl)-N-(4-(2,6-dimethoxyphenyl)-5-((2R)-5-oxo-2-pyrrolidinyl)-4H-1,2,4-triazol-3-yl)-1-(2-propanyloxy)-2-propanesulfonamide or (1S,2S)-1-(5-chloro-2-pyrimidinyl)-N-(4-(2,6-dimethoxyphenyl)-5-((2S)-5-oxo-2-pyrrolidinyl)-4H-1,2,4-triazol-3-yl)-1-(2-propanyloxy)-2-propanesulfonamide] | 0.47 |
| (1S,2S)-N-(4-(1,3-dimethoxy-2-propanyl)-5-((2R,5R)-5-methyltetrahydro-2-furanyl)-4H-1,2,4-triazol-3-yl)-1-(5-methyl-2-pyridinyl)-1-(2-propanyloxy)-2-propanesulfonamide or (1S,2S)-N-(4-(1,3-dimethoxy-2-propanyl)-5-((2S,5S)-5-methyltetrahydro-2-furanyl)-4H-1,2,4-triazol-3-yl)-1-(5-methyl-2-pyridinyl)-1-(2-propanyloxy)-2-propanesulfonamide [Example 366.0] | 0.68 |
| CO[C@H](c1ncc(Cl)cn1)[C@H](C)S(=O)(=O)Nc1nnc([C@H]2CCC(C)(C)O2)n1C(C)C (single isomer, unassigned) [Example 300.0, (1R,2S)-1-(5-chloropyrimidin-2-yl)-N-(5-((R)-5,5-dimethyltetrahydrofuran-2-yl)-4-isopropyl-4H-1,2,4-triazol-3-yl)-1-methoxypropane-2-sulfonamide or (1R,2S)-1-(5-chloropyrimidin-2-yl)-N-(5-((S)-5,5-dimethyltetrahydrofuran-2-yl)-4-isopropyl-4H-1,2,4-triazol-3-yl)-1-methoxypropane-2-sulfonamide] | 1.4 |
| COc1cccc(OC)c1-n1c(NS(=O)(=O)CCc2ncc(Cl)cn2)nnc1[C@@H]1COCCO1 (single isomer, unassigned) [Example 425.0, 2-(5-chloro-2-pyrimidinyl)-N-(4-(2,6-dimethoxyphenyl)-5-((2R)-1,4-dioxan-2-yl)-4H-1,2,4-triazol-3-yl)ethanesulfonamide or 2-(5-chloro-2-pyrimidinyl)-N-(4-(2,6-dimethoxyphenyl)-5-((2S)-1,4-dioxan-2-yl)-4H-1,2,4-triazol-3-yl)ethanesulfonamide] | 0.13 |
| COc1ncnc(OC)c1-n1c(NS(=O)(=O)[C@@H](C)[C@H](C)c2ccc(C#N)cn2)nnc1[C@H]1CCOC1 (single isomer, unassigned) [Example 382.0, (2S,3R)-3-(5-cyano-2-pyridinyl)-N-(4-(4,6-dimethoxy-5-pyrimidinyl)-5-((3R)-tetrahydro-3-furanyl)-4H-1,2,4-triazol-3-yl)-2-butanesulfonamide or (2S,3R)-3-(5-cyano-2-pyridinyl)-N-(4-(4,6-dimethoxy-5-pyrimidinyl)-5-((3S)-tetrahydro-3-furanyl)-4H-1,2,4-triazol-3-yl)-2-butanesulfonamide] | 0.27 |
| COc1cccc(OC)c1-n1c(NS(=O)(=O)[C@@H](C)[C@H](C)c2ncc(C)cn2)nnc1[C@H]1CCOC1 (single isomer, unassigned) [Example 55.0, (2S,3R)-N-(4-(2,6-dimethoxyphenyl)-5-((R)-tetrahydrofuran-3-yl)-4H-1,2,4-triazol-3-yl)-3-(5-methylpyrimidin-2-yl)butane-2-sulfonamide or (2S,3R)-N-(4-(2,6-dimethoxyphenyl)-5-((S)-tetrahydrofuran-3-yl)-4H-1,2,4-triazol-3-yl)-3-(5-methylpyrimidin-2-yl)butane-2-sulfonamide] | 0.066 |
| COc1cccc(OC)c1-n1c(NS(=O)(=O)CCc2ccc(F)cc2C#N)nnc1[C@@H]1CCCO1 (mixture of isomers) [Example 146.0, (S)-2-(2-Cyano-4-fluorophenyl)-N-(4-(2,6-dimethoxyphenyl)-5-(tetrahydrofuran-2-yl)-4H-1,2,4-triazol-3-yl)ethanesulfonamide and (R)-2-(2-cyano-4-fluorophenyl)-N-(4-(2,6-dimethoxyphenyl)-5-(tetrahydrofuran-2-yl)-4H-1,2,4-triazol-3-yl)ethanesulfonamide] | 0.45 |
